Values of other authors as cited in US20020040034A1, “Methods for treating allergic asthma using descarboethoxyloratadine” (priority 1997, published 2002).

Tests used:
[1] = system: allergic bronchospasm; settings: milligram by milligram basis
[2] = system: melanoma and fibrosarcoma tumors

Row | SMILES | Inhibition of allergic bronchospasm, potency compared with terfenadine [1] | Association with tumor growth [2]
1 | CCOC(=O)N1CCC(=C2c3ccc(Cl)cc3CCc3cccnc32)CC1 [Loratadine] | four times more potent than terfenadine | associated with growth of both melanoma and fibrosarcoma tumors
2 | COc1ccc(CCN2CCC(Nc3nc4ccccc4n3Cc3ccc(F)cc3)CC2)cc1 [astemizole] | – | associated with growth of both melanoma and fibrosarcoma tumors
